Experimental data from US12565485B2, “Solid forms of 1-((S)-4-((R)-7-(6-amino-4-methyl-3-(trifluoromethyl)pyridin-2-yl)-6-chloro-8-fluoro-2-(((s)-1-methylpyrrolidin-2-yl)methoxy)quinazolin-4-yl)-3-methylpiperazin-1-yl)prop-2-en-1-one” (Genentech, Inc., priority 2022, dated 2026).

What was measured:
Assay type in all cases: physicochemical
[1] = VH-XRPD analysis / transitions of forms at varying relative humidity; conditions: dehydrated
Source text: FIG. 19. The sample then reverts to the original form upon reaching 30% RH. […] Transitions of Forms of Compound A at varying RH.

[2] = Approximate solubility at RT (stepwise solvent addition until visually dissolved)
Method: The solubility of starting material was estimated at RT in 20 solvents. For each experiment, approximately 2 mg of sample was added into a 3-mL glass vial. Solvents in Table 32 were then added stepwise (50, 50, 200, 700 μL) into the vials until the solids were dissolved visually or a total volume of 1 mL was reached.

[3] = Slurry competition between Compound A Form A and B
Method: The suspensions were stirred at a speed of 750 rpm and tested by XRPD in transmission mode.

[4] = Heating under N2 protection (VT-XRPD), form change
Method: Compound B Form A was obtained from an acetone system and the sample was air dried at RT. […] (peak temperature) before the possible overlapped peak with peak temperature at 156.3° C. (FIG. 12). Based on the integrals, the stoichiometric ratio of fumaric acid:freebase was determined to be 1.03. A peak of acetone was observed and approximately 0.49 molar acetone (4.4 wt %) was detected. The HPLC purity of Compound B Form A was determined to be 93.56 area %. […] Around 0.39 molar acetone (3.5 wt %) was still detected. One endotherm at 58.7° C. and an overlapped peak with peak temperature at 157.1° C. were still observed on the sample obtained after heating. The first endotherm might be caused by re-adsorption of moisture. Since ˜3.5 wt % acetone was still detected from NMR, Compound B Form A is expected to be an acetone/H2O co-solvate. […]

[5] = Form change before and after drying (XRPD); conditions: for Form change before and after drying: air dried at RT
Method: The wet sample was vacuum dried at RT for 3 hrs. […] A solid was obtained with a yield of 62.2%. […] (peak temperature). Based on the integrals in NMR spectrum, the stoichiometric ratio of adipic acid:freebase was determined to be 1.06. A peak of EtOAc was observed. Around 0.07 molar EtOAc (0.8 wt %) was detected, which was consistent with TGA weight loss.
(peak), and one small endotherm at 158.8° C. […] Based on the integrals, the stoichiometric ratio of adipic acid:freebase was determined to be 1.65.
(peak temperature). Based on the integrals, the stoichiometric ratio of adipic acid:freebase was determined to be 1.06. Peak of THF was observed. Around 0.17 molar THF (1.9 wt %) was detected, which was consistent with TGA weight loss.
Compound B Form A was obtained from an acetone system and the sample was air dried at RT. […] (peak temperature) before the possible overlapped peak with peak temperature at 156.3° C. (FIG. 12). Based on the integrals, the stoichiometric ratio of fumaric acid:freebase was determined to be 1.03. A peak of acetone was observed and approximately 0.49 molar acetone (4.4 wt %) was detected. The HPLC purity of Compound B Form A was determined to be 93.56 area %. […] Around 0.39 molar acetone (3.5 wt %) was still detected. One endotherm at 58.7° C. and an overlapped peak with peak temperature at 157.1° C. were still observed on the sample obtained after heating. The first endotherm might be caused by re-adsorption of moisture. Since ˜3.5 wt % acetone was still detected from NMR, Compound B Form A is expected to be an acetone/H2O co-solvate.
Compound C Form A was obtained from EtOAc system and the sample was air dried at RT. […] HPLC purity of Compound C Form A was determined to be 95.18 area %.

[6] = Static storage at 25° C./97% RH and 40° C./75% RH; conditions: after 7 days
Method: Amorphous material of Compound A (mono adipate salt) was successfully prepared through freeze drying. Characterisation of the initial batch of samples were all shown to be amorphous by XRPD and the NMR's contained ca. 1.1 eq. adipic acid with varying quantities of residual solvent, except for acetonitrile/water (1:1) which contained no residual solvent. […] Static storage at 25° C./97% RH and 40° C./75% RH after 7 days were all shown to have deliquesced.

[7] = heating to 100° C. under N2 protection, cooled down and exposed to ambient conditions

## C=CC(=O)N1CCN(c2nc(OC[C@@H]3CCCN3C)nc3c(F)c(-c4nc(N)cc(C)c4C(F)(F)F)c(Cl)cc23)[C@@H](C)C1 [Compound A Form D]
[1]
  Form after dehydration: formed Compound A Form C

## C=CC(=O)N1CCN(c2nc(OC[C@@H]3CCCN3C)nc3c(F)c(-c4nc(N)cc(C)c4C(F)(F)F)c(Cl)cc23)[C@@H](C)C1 [starting material]
[2]; 1,4-Dioxane
  Solubility: S > 38.0 mg/mL
[2]; 2-MeTHF
  Solubility: S > 40.0 mg/mL
[2]; Acetone
  Solubility: S > 40.0 mg/mL
[2]; Anisole
  Solubility: S > 38.0 mg/mL
[2]; CPME
  Solubility: S > 40.0 mg/mL
[2]; DCM
  Solubility: S > 38.0 mg/mL
[2]; DMSO
  Solubility: S > 38.0 mg/mL
[2]; EtOAc
  Solubility: S > 40.0 mg/mL
[2]; H2O
  Solubility: S < 2.1 mg/mL
[2]; IPAc
  Solubility: S > 40.0 mg/mL
[2]; MEK
  Solubility: S > 46.0 mg/mL
[2]; MIBK
  Solubility: S > 42.0 mg/mL
[2]; MeOH
  Solubility: S > 42.0 mg/mL
[2]; THF
  Solubility: S > 44.0 mg/mL
[2]; Toluene
  Solubility: S > 40.0 mg/mL
[2]; n-Heptane
  Solubility: S < 2.0 mg/mL

## C=CC(=O)N1CCN(c2nc(OC[C@@H]3CCCN3C)nc3c(F)c(-c4nc(N)cc(C)c4C(F)(F)F)c(Cl)cc23)[C@@H](C)C1.O=C(O)CCCCC(=O)O [Compound A Form A + B]
[3]; IPA, 5° C.
  Slurry competition result (XRPD form): Compound A Form A
[3]; IPA, 5° C., listed as Compound A Form A+B
  Slurry competition result (XRPD form): turned to Compound A Form A
[3]; IPA, −20° C.
  Slurry competition result (XRPD form): Compound A Form A
[3]; IPA, −20° C., listed as Compound A Form A+B
  Slurry competition result (XRPD form): turned to Compound A Form A
[3]; Toluene, 5 to RT (RT for 18 days)
  Slurry competition result (XRPD form): Compound A Form A
[3]; Toluene, 5 to RT (RT for 18 days), listed as Compound A Form A+B
  Slurry competition result (XRPD form): Compound A Form A was observed
[3]; Toluene, 5° C., after 5 days
  Slurry competition result (XRPD form): a mixture of Compound A Form A+B was observed

## C=CC(=O)N1CCN(c2nc(OC[C@@H]3CCCN3C)nc3c(F)c(-c4nc(N)cc(C)c4C(F)(F)F)c(Cl)cc23)[C@@H](C)C1 [Compound C Form A]
[4]; heating to 100° C. under N2 protection, cooled down and exposed to ambient conditions, listed as Form A of Compound C
  Form change after heating: no form change was observed
[5]
  Form change before and after drying: No form change was observed

## C=CC(=O)N1CCN(c2nc(OC[C@@H]3CCCN3C)nc3c(F)c(-c4nc(N)cc(C)c4C(F)(F)F)c(Cl)cc23)[C@@H](C)C1.O=C(O)CCCCC(=O)O [Amorphous material of Compound A]
[6]; 25° C./97% RH
  Static storage observation: deliquesced
[6]; 40° C./75% RH
  Static storage observation: deliquesced

## C=CC(=O)N1CCN(c2nc(OC[C@@H]3CCCN3C)nc3c(F)c(-c4nc(N)cc(C)c4C(F)(F)F)c(Cl)cc23)[C@@H](C)C1 [Compound A Form B]
[4]; heating to 90° C. under N2 protection
  Form change after heating: no form change was observed
[5]; air drying at RT overnight
  Form change after drying: No form change was observed

## C=CC(=O)N1CCN(c2nc(OC[C@@H]3CCCN3C)nc3c(F)c(-c4nc(N)cc(C)c4C(F)(F)F)c(Cl)cc23)[C@@H](C)C1.O=C(O)/C=C/C(=O)O (atropisomer, axis not shown) [Compound B Form A]
[4]; [7]
  Form change after heating: no form change was observed
[5]
  Form change before and after drying: No form change was observed

## C=CC(=O)N1CCN(c2nc(OC[C@@H]3CCCN3C)nc3c(F)c(-c4nc(N)cc(C)c4C(F)(F)F)c(Cl)cc23)[C@@H](C)C1.CC(=O)O (atropisomer, axis not shown) [Compound F Form A]
[4]; [7]
  Form change after heating: no form change was observed
